Source: article PMC6332076, “Plasma Pharmacokinetics of Polyphenols in a Traditional Japanese Medicine, Jumihaidokuto, Which Suppresses Propionibacterium acnes-Induced Dermatitis in Rats” (Molecules, 2015)

System: Propionibacterium acnes (P. acnes)-induced dermatitis
Assay: P. acnes-induced acute dermatitis, ear thickness
Format: in vivo, rat
Conditions: rats, intradermal P. acnes 0.14 mg/ear; JHT 0.5 g/kg p.o. 1 h before and 6 h after injection; PDN 10 mg/kg p.o.; P. acnes + DW group 181%; N = 5
Method: Figure 1 Suppression of Propionibacterium acnes (P. acnes)-induced dermatitis in rats by jumihaidokuto (JHT) administration. Dermatitis was induced in rats by injection of P. acnes (0.14 mg/50 μL/ear) into the pinna. The ear thickness was measured at 0 and 24 h after the injection. JHT suspended in distilled water (DW) was administered orally at a dose of 0.5 g/10 mL/kg at 1 h before and 6 h after the injection. Prednisolone (PDN, 10 mg/10 mL/kg) was used as a reference drug. Data represent the relative ear thickness, which was standardized against the previous values before the injection. N = 5. ^## p < 0.01 vs. saline + DW group (Student’s t-test), ** p < 0.01 significant vs. P. acnes + DW group (Dunnett’s test). […]
P. acnes-induced dermatitis was induced using the procedure described previously with a minor modification. […] The ear thickness was measured using a dial thickness gauge micrometer (Ozaki MFG Co., Tokyo, Japan) at 0 and 24 h after the injection. All data on the increase in ear thickness were expressed as a percentage of the previous value in each individual rat, and as the mean ± S.E. Statistical significance was evaluated by one-way analysis of variance, followed by the Dunnett’s multiple comparisons or unpaired Student’s t-test. […]

With `C[C@]12C=CC(=O)C=C1CC[C@@H]1[C@@H]2[C@@H](O)C[C@@]2(C)[C@H]1CC[C@]2(O)C(=O)CO` [PDN, Prednisolone] the “increase in ear thickness in a 24 h period compared with that prior to injection” value was 123%.
